Laboratory results from ChEMBL document CHEMBL1151113, “Umuhengerin, a new antimicrobially active flavonoid from Lantana trifolia” (1988).
Values after ≈ are worked out from the molar mass of the structure shown. Active and inactive are the calls of the source. The calls are words filed in the database; no cut-off is given here.

Assays:
[1] = system: Staphylococcus aureus; assay: Antibacterial activity against Staphylococcus aureus ATCC 25923; assay type: functional
[2] = system: Micrococcus; assay: Antibacterial activity against Micrococcus sp.; assay type: functional
[3] = system: Streptococcus pneumoniae; assay: Antibacterial activity against Streptococcus pneumoniae; assay type: functional
[4] = system: Streptococcus pyogenes; assay: Antibacterial activity against Streptococcus pyogenes; assay type: functional
[5] = system: Microsporum canis; assay: Antifungal activity against Microsporum canis; assay type: functional
[6] = system: Streptococcus viridans; assay: Antibacterial activity against Streptococcus viridans; assay type: functional
[7] = system: Neisseria gonorrhoeae; assay: Antibacterial activity against Neisseria gonorrhoeae; assay type: functional
[8] = system: Klebsiella aerogenes; assay: Antibacterial activity against Enterobacter aerogenes; assay type: functional
[9] = system: Escherichia coli; assay: Antibacterial activity against Escherichia coli; assay type: functional
[10] = system: Klebsiella pneumoniae; assay: Antibacterial activity against Klebsiella pneumoniae; assay type: functional
[11] = system: Proteus vulgaris; assay: Antibacterial activity against Proteus vulgaris; assay type: functional
[12] = system: Pseudomonas aeruginosa; assay: Antibacterial activity against Pseudomonas aeruginosa; assay type: functional
[13] = system: Salmonella typhimurium; assay: Antibacterial activity against Salmonella Typhimurium; assay type: functional, Salmonella enterica subsp. enterica serovar Typhimurium; settings: Salmonella enterica
[14] = system: Serratia marcescens; assay: Antibacterial activity against Serratia marcescens; assay type: functional
[15] = system: Shigella flexneri; assay: Antibacterial activity against Shigella flexneri; assay type: functional
[16] = system: Mycolicibacterium fortuitum; assay: Antibacterial activity against Mycobacterium fortuitum; assay type: functional
[17] = system: Candida albicans; assay: Antifungal activity against Candida albicans; assay type: functional
[18] = system: Candida tropicalis; assay: Antifungal activity against Candida tropicalis; assay type: functional
[19] = system: Aspergillus flavus; assay: Antifungal activity against Aspergillus flavus; assay type: functional
[20] = system: Aspergillus fumigatus; assay: Antifungal activity against Aspergillus fumigatus; assay type: functional
[21] = system: Aspergillus niger; assay: Antifungal activity against Aspergillus niger; assay type: functional
[22] = system: Trichophyton mentagrophytes; assay: Antifungal activity against Trichophyton mentagrophytes; assay type: functional
[23] = system: Trichophyton rubrum; assay: Antifungal activity against Trichophyton rubrum; assay type: functional
[24] = system: Human alphaherpesvirus 1; assay: Antiviral activity against Herpes simplex virus 1 in african green monkey Vero cells; assay type: functional, organism-based
[25] = system: Coxsackievirus; assay: Antiviral activity against Coxsackievirus B2 in african green monkey Vero cells; assay type: functional, organism-based
[26] = system: Poliovirus 1; assay: Antiviral activity against Human poliovirus 1 1A/S2 in african green monkey Vero cells; assay type: functional, organism-based
[27] = system: Semliki Forest virus; assay: Antiviral activity against Semliki forest virus in african green monkey Vero cells; assay type: functional, organism-based

Structure (SMILES): COc1cc(-c2cc(=O)c3c(O)c(OC)c(OC)cc3o2)cc(OC)c1OC [GRADENIN A]
- MIC [1]: 20 µg/mL (≈ 51.5 µM)
- MIC [2]: > 200 µg/mL
- MIC [3]: > 200 µg/mL
- MIC [4]: > 200 µg/mL
- MIC [5]: 50 µg/mL (≈ 129 µM)
- MIC [6]: > 200 µg/mL
- MIC [7]: > 200 µg/mL
- MIC [8]: > 200 µg/mL
- MIC [9]: > 200 µg/mL
- MIC [10]: > 200 µg/mL
- MIC [11]: > 200 µg/mL
- MIC [12]: > 200 µg/mL
- MIC [13]: 5 µg/mL (≈ 12.9 µM)
- MIC [14]: > 200 µg/mL
- MIC [15]: > 200 µg/mL
- MIC [16]: > 200 µg/mL
- MIC [17]: > 200 µg/mL
- MIC [18]: 20 µg/mL (≈ 51.5 µM)
- MIC [19]: > 200 µg/mL
- MIC [20]: 200 µg/mL (≈ 515 µM)
- MIC [21]: 200 µg/mL (≈ 515 µM)
- MIC [22]: 50 µg/mL (≈ 129 µM)
- MIC [23]: > 200 µg/mL
- Activity [24]: inactive
- Activity [25]: inactive
- Activity [26]: inactive
- Activity [27]: inactive
